The values that follow come from the METLIN SMRT retention time set (Domingo-Almenara et al. 2019).

This data set is described as follows: gradient 5% acetonitrile 3 min, to 50% in 2 min, to 85% in 15 min, held 3 min, 100 µL/min. To be noted: column: Zorbax Extend-C18 2.1 x 50 mm; eluents: water / acetonitrile, 0.1% formic acid. The method in brief:
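Retention time was recorded from adduct peaks, which were picked computationally and each inspected manually. Pure standards ran in mixtures of ~100 molecules on HPLC coupled to a quadrupole time-of-flight mass spectrometer, in positive and negative ionization mode, through a Zorbax Extend-C18 column (2.1 × 50 mm, 1.8 μm) at 100 μL/min. Eluents were water and acetonitrile, each with 0.1% formic acid.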
In turn, `CCCN(C)c1nccn2c(=O)n(CC(=O)Nc3ccc4c(c3)OCCO4)nc12` displayed an RP-LC retention time of 642 s.

As to `O=C(CCc1ccccc1)Nc1nnc(C2CC(=O)N(c3ccc(Cl)cc3)C2)o1` (centres undefined), the RP-LC retention time worked out at 805 s.

For the molecule `O=C(Nc1ccccc1Cl)c1cnc(-c2ccc(F)cc2)nc1-c1ccncc1`, the RP-LC retention time is 1000 s.

As to `Cc1ccsc1-c1nnc(CC(=O)N2CCN(Cc3ccccc3)CC2)o1`, the RP-LC retention time stood at 630 s.

The molecule `CN(Cc1ccccc1)c1ccc(-c2noc(CN3CCCC3)n2)cn1` came in with an RP-LC retention time of 675 s.

Consider `CCOC(=O)c1cnn(-c2cccc(Cl)c2)c1C1CCNCC1`, for which the RP-LC retention time is 650 s.

For `CCn1c(=O)c2c(C(=O)N3CCN(c4ccccn4)CC3)cc(=O)n(CC)c2n(C)c1=O`, the RP-LC retention time stood at 617 s.

In the case of `O=C(Nc1cccc(Br)c1)C1CCN(C(=O)c2cc(-c3ccncc3)n[nH]2)CC1`, the RP-LC retention time came out at 640 s.

The molecule `COc1ccc(-c2nnc(-c3cc(S(=O)(=O)N4CCSCC4)ccc3Cl)o2)cc1` registered an RP-LC retention time of 1080 s.

With `COc1ccc(NC(=O)c2cnc3c(c2)c(=O)n(C)c(=O)n3-c2ccccc2)cc1Cl`, the RP-LC retention time was determined as 916 s.

For `O=C(Cn1nc(C(=O)N2CCCC2)c2ccccc21)N1CCN(c2cccc(Cl)c2)CC1`, the RP-LC retention time stood at 942 s.

For the molecule `O=C(Cn1ccc2sccc2c1=O)NCc1ccccc1`, the RP-LC retention time worked out at 696 s.

On to `CCOc1ccc(S(=O)(=O)N(CC(=O)N2CCNCC2)CC2CCCO2)cc1` (centres undefined), for which the RP-LC retention time came to 626 s.

In turn, `CCC(=O)N1CCc2cc(N3CC(C(=O)NCc4cccs4)CC3=O)ccc21` (centres undefined) came in with an RP-LC retention time of 695 s.

`O=C(NCCn1nc(-n2ccnc2)ccc1=O)c1cc(-c2ccccc2)on1` registered an RP-LC retention time of 572 s.

With `CC(C)N1C(=O)c2cccnc2Sc2cc(NC(=O)c3ccc(F)cc3Cl)ccc21`, the RP-LC retention time came to 916 s.

For `O=C(Nc1ccc(F)cc1F)C1(CCO)CCN(c2ncccn2)C1` (centres undefined), the RP-LC retention time worked out at 611 s.

Turning to `O=C(c1ccc(Cl)cc1)N1CCN(c2ccc([N+](=O)[O-])c3ncccc23)CC1`, the RP-LC retention time stood at 957 s.

On to `Cc1nnn(C23CC4CC(CC(C(=O)N5CCN(c6ccccn6)CC5)(C4)C2)C3)n1`, for which the RP-LC retention time is 597 s.

`Cc1ccc(-c2nc(-c3ccc4c(c3)oc(=O)n4C)no2)cc1C` yielded an RP-LC retention time of 1180 s.

Consider `CCOC(=O)[C@H]1O[C@@H]1C(=O)N[C@@H](CC(C)C)C(=O)NCCC(C)C`, for which the RP-LC retention time came to 992 s.

Molecule `Cn1nc(C2CCCN2C(=O)C2(c3ccccc3)CC2)n(Cc2ccccc2)c1=O` (centres undefined) yielded an RP-LC retention time of 830 s.

As to `COc1ccc(S(=O)(=O)N2CCC(CN3CCC(C)CC3)CC2)cc1`, the RP-LC retention time was 655 s.

As for `CC(C)NC(=O)c1ccc(OCC2CCN(C(=O)c3ccc(F)cc3F)CC2)cc1`, the RP-LC retention time turned out to be 854 s.

As to `O=C(CCc1csc(NC(=O)c2cccs2)n1)Nc1ccc(F)c(Cl)c1`, the RP-LC retention time turned out to be 869 s.

Molecule `COc1ccc(N2CCN(C(=O)c3cn4nc(OC)ccc4n3)CC2)cc1` registered an RP-LC retention time of 683 s.

Turning to `CCCOc1nc2ccccc2nc1N1CCCC(C(=O)Nc2ccc(NC(C)=O)cc2)C1` (centres undefined), the RP-LC retention time is 968 s.

In turn, `CN1c2cc(F)ccc2C(=O)NC12CCN(C(=O)NCCc1ccccc1)CC2` returned an RP-LC retention time of 761 s.

For the molecule `CCc1nnc(-c2ccc3ccn(CC(=O)Nc4ccc5c(c4)OCO5)c3c2)o1`, the RP-LC retention time was 794 s.

Molecule `CCCCN(C)C(=O)c1cn2cc(C)ccc2n1` yielded an RP-LC retention time of 608 s.

Molecule `COc1ccc(C2Cn3nnc(C(=O)NCc4cc(OC)ccc4OC)c3CO2)cc1` (centres undefined) returned an RP-LC retention time of 926 s.

Regarding `CCOc1cc2ncc(C#N)c(Nc3ccc(OCc4ccccn4)c(Cl)c3)c2cc1NC(=O)/C=C/CN(C)C`, the RP-LC retention time was 620 s.

`O=C(Nc1cccc(-c2nnc3n2CCCC3)c1)c1ccoc1` registered an RP-LC retention time of 640 s.

On to `CCCC(=O)Nc1nc(-c2ccc3c(c2)NC(=O)C(C)O3)cs1` (centres undefined), for which the RP-LC retention time was 806 s.

Take `Cc1nn(-c2ccccc2)cc1C(=O)N1CCC(CC(=O)NCCc2c[nH]c3ccccc23)CC1`: the RP-LC retention time amounted to 751 s.

In turn, `CCC(c1cccs1)N1C(=O)[C@H]2CN(S(=O)(=O)c3ccccc3C)C[C@H]2C1=O` (some centres undefined) returned an RP-LC retention time of 1020 s.

`Cc1nn(C)cc1CN(C)C(=O)NC1CCCCC1` had an RP-LC retention time of 611 s.

`COc1cccc(-c2nc(CN3CCCC3=O)no2)c1` registered an RP-LC retention time of 697 s.

As to `COc1ccc(-c2cn3c(CC(=O)Nc4ccc(OC)cc4OC)csc3n2)cc1`, the RP-LC retention time was found to be 746 s.

The molecule `Cc1cc(C(F)F)n2nc(C(=O)N3CCCC3c3ccc(F)cc3)nc2n1` (centres undefined) displayed an RP-LC retention time of 808 s.

As for `O=C(Nc1cccn2cnnc12)c1ccc(C(F)(F)F)cc1`, the RP-LC retention time is 744 s.

Regarding `Cn1nccc1C(=O)Nc1ccc(Br)cc1`, the RP-LC retention time was found to be 791 s.

Molecule `CC(C)N1C(=O)c2cccnc2Sc2cc(NC(=O)c3ccc(Cl)s3)ccc21` had an RP-LC retention time of 975 s.

In turn, `Cc1ccc2c(Nc3ccc4c(c3)OCO4)c(C(=O)N3CCCC3)cnc2n1` showed an RP-LC retention time of 591 s.

For `CN(CCCNC(=O)Cn1c(=O)c2cccn2c2ccccc21)Cc1ccccc1`, the RP-LC retention time amounted to 631 s.

In turn, `CC(C)c1ccc(NC(=O)Cn2ccc3c(=O)n(C)c(=O)n(C)c32)cc1` came in with an RP-LC retention time of 772 s.

Molecule `COc1cc(OC)c(NC(=O)Cn2nc3c(cc2=O)CCCC3)cc1Cl` gave an RP-LC retention time of 719 s.

In turn, `CCC(=O)N(C)CCc1noc(-c2ccc(C(=O)NCCOC)cc2)n1` registered an RP-LC retention time of 644 s.

For `Cc1nn(-c2ccc(N3CCOCC3)nn2)c(C)c1CCC(=O)NCCc1ccco1`, the RP-LC retention time turned out to be 661 s.

With `O=C(CN1CCN(Cc2ccc(F)cc2Cl)C1=O)NCCCc1ccccc1`, the RP-LC retention time was determined as 930 s.

Regarding `Cc1ccccc1C(=O)N1C[C@@H](F)C[C@H]1C(=O)N1CCOCC1`, the RP-LC retention time was 620 s.

`COc1ccc(-c2c(C)noc2NC(C)=O)cc1S(=O)(=O)Nc1cc(OC)c(OC)c(OC)c1` showed an RP-LC retention time of 687 s.

For `O=c1n(Cc2cccc(F)c2)nc2ccc(S(=O)(=O)N3CCCCC3)cn12`, the RP-LC retention time stood at 952 s.

In turn, `CCOc1ncccc1C(=O)Nc1cccc(-c2csc3nc(C)cc(=O)n23)c1` yielded an RP-LC retention time of 774 s.

Take `O=C(c1ccco1)N1CCN(c2ccc(-c3noc(C4CC4)n3)cc2)CC1`: the RP-LC retention time turned out to be 864 s.

Molecule `CCn1ccc2sc(C)c(C(=O)NCCCN3CCCC3=O)c2c1=O` returned an RP-LC retention time of 594 s.

The molecule `CCN(CC)c1nc2cc(C(=O)NCc3ccc(C)o3)ccc2c(=O)n1-c1ccccc1` registered an RP-LC retention time of 1020 s.

`O=C(COc1ccccc1-c1nnc(-c2ccccc2)o1)Nc1ccc2c(c1)OCCO2` had an RP-LC retention time of 1160 s.

The molecule `COc1ccccc1NC(=O)Cn1c(-c2nc(C(C)C)no2)cccc1=O` gave an RP-LC retention time of 927 s.
